According to publication PMC10879502, “Linking ATP and allosteric sites to achieve superadditive binding with bivalent EGFR kinase inhibitors” (Communications Chemistry, 2024):
Values joined by “and” are separate entries in the source; they are usually repeats but may differ in a detail not shown here. Identical values can stand only once. Like-named read-outs stand apart in the source and are kept apart here.

Key:
[1] = biological target: T1, WT EGFR kinase domain (Homo sapiens, UniProt P00533); assay: HTRF KinEASE-TK kinase activity assay; assay type: biochemical
T1 construct: The EGFR kinase domain (residues 696–1022) was cloned into pTriEx; 6xHis (N, cleaved yes); GST (N, cleaved yes); made in house; host or cells: SF9 insect cells, baculovirus

[2] = biological target: T2, EGFR L858R (LR) kinase domain (Homo sapiens, UniProt P00533, L858R); assay: HTRF KinEASE-TK kinase activity assay; assay type: biochemical
T2 construct: The EGFR kinase domain (residues 696–1022) was cloned into pTriEx; 6xHis (N, cleaved yes); GST (N, cleaved yes); made in house; host or cells: SF9 insect cells, baculovirus

[3] = biological target: T3, EGFR L858R/T790M (LRTM) kinase domain (Homo sapiens, UniProt P00533, L858R/T790M); assay: HTRF KinEASE-TK kinase activity assay; assay type: biochemical; conditions: for linking coefficients: limits estimated from LRTM IC50 values; for Linking coefficient E: LRTM IC50, upper limit; for activity: LRTM, read-out: percent inhibition
T3 construct: The EGFR kinase domain (residues 696–1022) was cloned into pTriEx; 6xHis (N, cleaved yes); GST (N, cleaved yes); made in house; host or cells: SF9 insect cells, baculovirus

[4] = biological target: T4, EGFR L858R/T790M/C797S (LRTMCS) kinase domain (Homo sapiens, UniProt P00533, C797S/L858R/T790M); assay: HTRF KinEASE-TK kinase activity assay; assay type: biochemical
T4 construct: The EGFR kinase domain (residues 696–1022) was cloned into pTriEx; 6xHis (N, cleaved yes); GST (N, cleaved yes); made in house; host or cells: SF9 insect cells, baculovirus

[5] = test system: EGFR phosphorylation (pY1068) in H1975 cells; assay: Western blot; assay type: cell-based, human; conditions: H1975, 6 h
Protocol: H1975, H3255, H3255GR and HCC827 lung adenocarcinoma cells (obtained from Dr. Pasi Jänne in Dana-Farber Cancer Institute, 2022) were cultured in RPMI 1640 media (Corning, 1004-CV) supplemented with 10% FBS (Tissue Culture Biologicals, 35-010-CV) and 1% penicillin-streptomycin (P/S, Corning, 30-002-CI). All cell lines were tested negative for Mycoplasma using Myco-Sniff-Rapid™ Mycoplasma Luciferase Detection Kit Plus PCR Primer Set (MP biomedicals, 0930504-CF) and were passaged and/or used for no longer than 4 weeks for all experiments H1975 and HCC-827 cells were seeded in 6-well plates with 400,000 cells per well and incubated overnight. H3255 and H3255GR cells were seeded in 12-well plates with 200,000 cells per well and were grown to confluency after 48 h. Culture medium was removed, cells washed with PBS, and lysed with lysis buffer containing 5 M NaCl, 1 M TRIS pH 8.0, 10% SDS, 10% Triton X-100 and a tablet of protease and phosphatase inhibitor. Protein lysate concentration was analyzed using Pierce BCA kit (ThermoFisher, 23225). Protein samples (10 µg) were resolved on hand-cast Criterion Tris-HCl protein gels. Primary antibodies used; phospho-EGFR (Tyr1068; #2234, 1:1,000), EGFR (#4267; 1:1,000), phospho-AKT (Ser473; #4060, 1:1,000), AKT (#9272, 1:1,000), phospho-ERK1/2 (Thr202/Tyr204; #4370, 1:1,000), and ERK1/2 (#4695, 1:1,000) antibodies; were purchased from Cell Signaling Technology. Secondary Goat anti-rabbit IgG starbright blue 700 (Biorad, 64484700) and Anti-tubulin hFAB Rhodamine Tubulin (Bio-Rad, 64512248). Western blots were visualized with the ChemiDoc MP imager (Bio-Rad) utilizing the Image Lab Touch Software (version 2.4.0.03). All Western blot images are representatives of at least 3 independent replicate experiments.

[6] = test system: Ba/F3 cells, wildtype EGFR; conditions: Ba/F3 ref 4 Wittlinger and Heppner; read-out: EGFR EC50, wt; cited from earlier work
[7] = test system: Ba/F3 cells, L858R EGFR; conditions: Ba/F3 ref 4 Wittlinger and Heppner; read-out: EGFR EC50, LR; cited from earlier work
[8] = test system: Ba/F3 cells, LR/TM/CS EGFR; conditions: Ba/F3 ref 4 Wittlinger and Heppner; cited from earlier work
[9] = enzyme 10 nM, ATP 100 µM, read-out: Biochemical EGFR IC50, WT
[10] = enzyme 0.1 nM, ATP 100 µM, read-out: Biochemical EGFR IC50, LR
[11] = Table S1, ATP 100 µM, read-out: IC50, LRTM
[12] = enzyme 0.02 nM, ATP 100 µM, read-out: Biochemical EGFR IC50, LRTM
[13] = enzyme 0.02 nM, ATP 100 µM, read-out: Biochemical EGFR IC50, LRTMCS

CSc1nc(-c2cccc(CN3C(=O)c4ccccc4Nc4ccc(F)cc43)c2)c(-c2ccnc(NC(C)=O)c2)[nH]1 [Compound 1]
IC50 [1, 9]: > 10 µM | IC50 ([1]; read-out: IC50, WT): ≥ 1 µM | activity at 3.181 pM ([2]; LR, [Inhibitor] 0.00318089 nM, read-out: percent inhibition): 103% | activity at 7.783 pM ([2]; LR, [Inhibitor] 0.00778314 nM, read-out: percent inhibition): 94.6% | activity at 19.04 pM ([2]; LR, [Inhibitor] 0.0190441 nM, read-out: percent inhibition): 99.4% | activity at 46.6 pM ([2]; LR, [Inhibitor] 0.0465979 nM, read-out: percent inhibition): 97.2% | activity at 0.000114018 µM ([2]; LR, [Inhibitor] 0.114018 nM, read-out: percent inhibition): 94.5% | activity at 0.000278983 µM ([2]; LR, [Inhibitor] 0.278983 nM, read-out: percent inhibition): 83% | activity at 0.000682626 µM ([2]; LR, [Inhibitor] 0.682626 nM, read-out: percent inhibition): 67.9% | activity at 0.00167028 µM ([2]; LR, [Inhibitor] 1.67028 nM, read-out: percent inhibition): 39.3% | activity at 0.0040869 µM ([2]; LR, [Inhibitor] 4.0869 nM, read-out: percent inhibition): 19.2% | activity at 0.01 µM ([2]; LR, [Inhibitor] 10 nM, read-out: percent inhibition): 9.7% | activity at 1.3 pM ([2]; LR, [Inhibitor] […], read-out: percent inhibition): 102% | IC50 [2, 10]: 1.3 ± 0.1 µM | IC50 ([2]; read-out: IC50, LR): ≥ 1 µM | IC50 [3, 11]: ≥ 1 µM | IC50 [3, 12]: > 10 µM | linking coefficients [3]: > 2e+07 M⁻¹ | activity at 3.181 pM ([4]; LRTMCS, [Inhibitor] 0.00318089 nM, read-out: percent inhibition): 103% | activity at 7.783 pM ([4]; LRTMCS, [Inhibitor] 0.00778314 nM, read-out: percent inhibition): 94.6% | activity at 19.04 pM ([4]; LRTMCS, [Inhibitor] 0.0190441 nM, read-out: percent inhibition): 99.4% | activity at 46.6 pM ([4]; LRTMCS, [Inhibitor] 0.0465979 nM, read-out: percent inhibition): 97.2% | activity at 0.000114018 µM ([4]; LRTMCS, [Inhibitor] 0.114018 nM, read-out: percent inhibition): 94.5% | activity at 0.000278983 µM ([4]; LRTMCS, [Inhibitor] 0.278983 nM, read-out: percent inhibition): 83% | activity at 0.000682626 µM ([4]; LRTMCS, [Inhibitor] 0.682626 nM, read-out: percent inhibition): 67.9% | activity at 0.00167028 µM ([4]; LRTMCS, [Inhibitor] 1.67028 nM, read-out: percent inhibition): 39.3% | activity at 0.0040869 µM ([4]; LRTMCS, [Inhibitor] 4.0869 nM, read-out: percent inhibition): 19.2% | activity at 0.01 µM ([4]; LRTMCS, [Inhibitor] 10 nM, read-out: percent inhibition): 9.7% | activity at 1.3 pM ([4]; LRTMCS, [Inhibitor] […], read-out: percent inhibition): 102% | IC50 [4, 13]: > 10000 nM | IC50 ([4]; read-out: IC50, LRTMCS): ≥ 1000 nM | suppression of EGFR phosphorylation [5]: limited ability to suppress phosphorylation

CCc1nc(-c2cccc(NC(=O)c3cccc4c3NC(=O)c3ccccc3N4)c2)c(-c2ccnc(NC(C)=O)c2)[nH]1 [Compound 3]
IC50 [1, 9]: < 0.01 µM | activity ([2]; LR, [Inhibitor] 1.3e-5 nM, read-out: percent inhibition): 95.4% and 96.9% and 90.5% | activity ([2]; LR, [Inhibitor] 3.18e-5 nM, read-out: percent inhibition): 86.7% and 90.8% and 88.7% | activity ([2]; LR, [Inhibitor] 7.78e-5 nM, read-out: percent inhibition): 65.8% and 67.4% and 61.5% | activity at 190.4 fM ([2]; LR, [Inhibitor] 0.000190441 nM, read-out: percent inhibition): 34.4% | activity at 466 fM ([2]; LR, [Inhibitor] 0.000465979 nM, read-out: percent inhibition): 15.1% | activity at 1.14 pM ([2]; LR, [Inhibitor] 0.00114018 nM, read-out: percent inhibition): 9.97% | activity at 2.79 pM ([2]; LR, [Inhibitor] 0.00278983 nM, read-out: percent inhibition): 5.05% | activity at 6.826 pM ([2]; LR, [Inhibitor] 0.00682626 nM, read-out: percent inhibition): 3.24% | activity at 16.7 pM ([2]; LR, [Inhibitor] 0.0167028 nM, read-out: percent inhibition): 1.45% | IC50 [2, 10]: 0.0012 ± 9e-05 µM | Linking coefficient E ([3]; ATP fragment 5, allosteric fragment 10): < 0.88 M⁻¹ | Linking coefficient E ([3]; ATP fragment 6, allosteric fragment 10): < 0. 51 M-1 | activity ([3]; [Inhibitor] 1.3e-5 nM): 80.3% and 89% and 81.1% | activity ([3]; [Inhibitor] 3.18e-5 nM): 69.3% and 75.7% and 76.3% | activity ([3]; [Inhibitor] 7.78e-5 nM): 34.1% and 36.2% and 33.7% | activity ([3]; [Inhibitor] 0.000190441 nM, 190.4 fM): 16.3% and 13.5% | activity ([3]; [Inhibitor] 0.000465979 nM, 466 fM): 5.63% and 5.16% | activity ([3]; [Inhibitor] 0.00114018 nM, 1.14 pM): 4.05% and 3.39% | activity ([3]; [Inhibitor] 0.00278983 nM, 2.79 pM): 3.12% and 3.28% | activity ([3]; [Inhibitor] 0.00682626 nM, 6.826 pM): 2.4% and 2.45% | IC50 ([3]; Table S1, read-out: IC50, LRTM): 5.1e-05 to 6.4e-05 µM and 5.1e-05 to 5.9e-05 µM | IC50 [3, 12]: 5.1e-05 ± 5e-06 µM | linking coefficients [3]: 0.5 to 1.0 M⁻¹ | activity ([4]; LRTMCS, [Inhibitor] 1.3e-5 nM, read-out: percent inhibition): 95.4% and 96.9% and 90.5% | activity ([4]; LRTMCS, [Inhibitor] 3.18e-5 nM, read-out: percent inhibition): 86.7% and 90.8% and 88.7% | activity ([4]; LRTMCS, [Inhibitor] 7.78e-5 nM, read-out: percent inhibition): 65.8% and 67.4% and 61.5% | activity at 190.4 fM ([4]; LRTMCS, [Inhibitor] 0.000190441 nM, read-out: percent inhibition): 34.4% | activity at 466 fM ([4]; LRTMCS, [Inhibitor] 0.000465979 nM, read-out: percent inhibition): 15.1% | activity at 1.14 pM ([4]; LRTMCS, [Inhibitor] 0.00114018 nM, read-out: percent inhibition): 9.97% | activity at 2.79 pM ([4]; LRTMCS, [Inhibitor] 0.00278983 nM, read-out: percent inhibition): 5.05% | activity at 6.826 pM ([4]; LRTMCS, [Inhibitor] 0.00682626 nM, read-out: percent inhibition): 3.24% | activity at 16.7 pM ([4]; LRTMCS, [Inhibitor] 0.0167028 nM, read-out: percent inhibition): 1.45% | IC50 [4, 13]: 0.063 ± 0.005 nM | IC50 ([4]; read-out: IC50, LRTMCS): 0.051 to 0.064 nM | suppression of EGFR phosphorylation [5]: also effective in H1975 cells, however to a lesser extent than 4

CSc1nc(-c2ccc(F)cc2)c(-c2ccnc(NC(C)=O)c2)[nH]1 [Compound 5, reference compound]
IC50 [3, 11]: 6 to 10 µM and ≥ 6 µM | IC50 [3, 12]: 5.8 ± 0.3 µM | IC50 [4, 13]: 6000 ± 500 nM | IC50 ([4]; read-out: IC50, LRTMCS): 6000 to 10000 nM

C=CC(=O)Nc1ccc(OC)c(Nc2cc(-c3[nH]c(SC)nc3-c3ccc(F)cc3)ccn2)c1 [Compound 7]
EC50 [6]: 0.02 ± 0.006 µM | EC50 [7]: < 0.001 µM | EC50 [8]: 1.6 ± 0.2 µM

O=C1c2cc(F)ccc2Nc2ccccc2N1Cc1ccccc1 [Compound 9, reference compound]
IC50 [1, 9]: > 1 µM | IC50 [3, 12]: 0.052 µM | IC50 [4, 13]: 39 to 59 nM

O=C1Nc2c(cccc2C(=O)Nc2ccccc2)Nc2ccccc21 [Compound 10]
IC50, LRTM ([3]; Table S1, ATP 100 µM): virtually inactive | IC50 [3, 11]: ≥ 10 µM

O=C1Nc2c(cccc2C(=O)Nc2nccs2)Nc2ccccc21 [Compound 11]
IC50 [3, 11]: ≥ 10 µM

COc1ccc2c(c1)C(=O)Nc1c(cccc1C(=O)Nc1nccs1)N2 [Compound 12]
IC50 [3, 11]: ≥ 10 µM
